# Patent US20190388558A1, “KARTOGENIN DERIVATIVE-CONTAINING POLYMERIC MICELLE, HYALURONIC ACID HYDROGEL, METHOD FOR PRODUCING THE SAME, AND USE THEREOF” (DONGGUK UNIVERSITY INDUSTRY-ACADEMIC COOPERATION FOUNDATION, priority 2018, published 2019)
# Tested on: rats in which OA was induced
# Experiment: Intra-articular injection in rats with surgically induced (ACLT + MM) degenerative arthritis; histology, immunohistochemistry, OARSI and Mankin scoring
# Format: in vivo, Sprague Dawley rats
# Settings: IA injection twice at 7th and 10th week after surgery, sacrificed 8th week after first injection
# Method: Animal experiments were performed with the approval of the animal experiment ethics committee by using 9-week old male Sprague Dawley rats (Orient Inc., Seoul, Korea). Degenerative arthritis (osteoarthritis; OA) was induced by performing anterior cruciate ligament transection (ACLT) and medial meniscectomy (MM) on the rats, and the rats were allowed to exercise on a treadmill for 20 minutes every day from two weeks after the surgery.
# In the Examples of the present invention, technical statistics were used in order to determine the group average and standard deviation. […]
# The rats were sacrificed at 8th week after the first IA injection, the knee joints were dissected and fixed with 10% paraformaldehyde (at 4° C. for 1 day), and then calcareous materials were removed with a Lite decalcifying solution (Sigma-Aldrich), and after the resulting knee joints were embedded in a Tissue-Tek OCT compound (Sakura Finetek, Torrance, Calif., USA) or paraffin wax, and then the paraffin wax fragment was stained with Safranin-O (4% w/v) and Fast Green (0.1% w/w). The degenerative state was evaluated by using an Osteoarthritis Research Society International (OARSI) cartilage Histopathology Assessment System and a Mankin evaluation system, and the fragments were analyzed through immunohistochemistry for COL2 and aggrecan. […]
smiles,measurement,value
"O=C(O)c1ccccc1C(=O)Nc1ccc(-c2ccccc2)cc1 [KGN, kartogenin]",cartilage histology (Safranin-O staining),loss of cartilage due to matrix vertical cracks and surface layer exfoliation
